# Measurements from publication PMC4498792, “Characterization of Novel Src Family Kinase Inhibitors to Attenuate Microgliosis” (PLoS ONE, 2015).
# Read-outs that look alike come from different tables or passages of the source.
# What was measured:
# microglial BV2 cells = assay: LDH release cell viability assay; type: cell-based, murine; conditions: 0.5nM to 50 μM, 24h
# Experimental: (§1) BV2 cells were harvested and counted before stimulation. The cells were untreated (control), vehicle-treated (DMSO), or treated with increasing concentrations (0.5nM, 5nM, 50nM, 0.5 μM, 5μM and 50 μM) of LDDN-0003499, LDDN-0075935, LDDN-0125694 or LDDN-0127164 for 24h to assess toxicity and 1 hour to assess effects on basal kinase activity. For secretion analyses, cells were pretreated with drugs for 1 hour prior to stimulation with 50nM Aβ (overnight) or 25ng/mL LPS (overnight) in the presence of the drugs in serum free DMEM/F12. Media were collected for ELISA analysis and for LDH release viability assays. For signaling analyses, cells were pretreated with drugs for 1 hour prior to 5 minute stimulation with 1μM Aβ 1–42. […] Protein concentrations were determined using the Bradford method.
# For the lactate dehydrogenase release (LDH) assay, media following the 24 hour cell stimulations were transferred onto a new 96-well plate and LDH concentrations assayed according to manufacturer instructions (Promega Corporation, Madison, WI). Background absorbance was subtracted from each condition. All absorbance values for the LDH assay were averaged and plotted ±SD.
# [1] = tested on: total protein phosphotyrosine levels in BV2 cells; assay: Total protein phosphotyrosine western blot (4G10), basal; type: cell-based, murine; conditions: 0.5nM to 50 μM, 1h, vs vehicle
# Experimental: as §1
# (§2) Cell lysates were resolved by SDS-PAGE on 10% polyacrylamide gels and transferred to PVDF membranes. […] Blots were washed followed by incubation with HRP-conjugated secondary antibodies and antibody binding was detected via enhanced chemiluminescence (GE Healthcare, Piscataway, NJ). Western blots were quantified using Adobe Photoshop software. […]
# Lyn [2] = biological target: T1, Lyn (Mus musculus, UniProt P25911); assay: Basal pLyn (Tyr 396) western blot in BV2 cells; type: cell-based, murine; conditions: 0.5nM to 50 μM, 1h
# T1 construct: endogenous in cells; host or cells: BV2 murine microglial cell line
# Experimental: as §1, §2
# Src [3] = biological target: T2, Src (Mus musculus, UniProt P05480); assay: Basal pSrc (Tyr 416) western blot in BV2 cells; type: cell-based, murine; conditions: 0.5nM to 50 μM, 1h
# T2 construct: endogenous in cells; host or cells: BV2 murine microglial cell line
# Experimental: as §1, §2
# ERK [4] = assay: Basal pERK western blot in BV2 cells; type: cell-based, murine; conditions: 0.5nM to 50 μM, 1h
# Experimental: as §1, §2
# JNK = assay: Basal pJNK western blot in BV2 cells; type: cell-based, murine; conditions: 0.5nM to 50 μM, 1h
# Experimental: as §1, §2
# p38 = assay: Basal p-p38 western blot in BV2 cells; type: cell-based, murine; conditions: 0.5nM to 50 μM, 1h
# Experimental: as §1, §2
# Lyn [5] = biological target: T1, Lyn; assay: Aβ-stimulated pLyn western blot in BV2 cells; type: cell-based, murine
# Experimental: (§3) BV2 cells were harvested and counted before stimulation. The cells were untreated (control), vehicle-treated (DMSO), or treated with increasing concentrations (0.5nM, 5nM, 50nM, 0.5 μM, 5μM and 50 μM) of […]-0125694 or LDDN-0127164 for 24h to assess toxicity and 1 hour to assess effects on basal kinase activity. […] Media were collected for ELISA analysis and for LDH release viability assays. For signaling analyses, cells were pretreated with drugs for 1 hour prior to 5 minute stimulation with 1μM Aβ 1-42. […] Protein concentrations were determined using the Bradford method. Cell lysates were resolved by SDS-PAGE on 10% polyacrylamide gels and transferred to PVDF membranes. Western blots were blocked with 3% bovine serum albumin and incubated in anti-phospho-[…][…]), anti-pSrc ([…]), anti-pERK, anti-pLyn ([…]), anti-pJNK, and anti-phospho-p38 primary antibodies with anti-α-tubulin, Src, ERK2, Lyn, JNK, and p38 antibodies used as the respective loading controls. Blots were washed followed by incubation with HRP-conjugated secondary antibodies and antibody binding was detected via enhanced chemiluminescence (GE Healthcare, Piscataway, NJ). Western blots were quantified using Adobe Photoshop software. Optical densities of bands were normalized using their appropriate loading controls and averaged (±) SD.
# Src [6] = biological target: T2, Src; assay: Aβ-stimulated pSrc western blot in BV2 cells; type: cell-based, murine; conditions: 1h pretreatment, 1 μM Aβ 1-42 for 5 minutes
# Experimental: as §3
# ERK [7] = assay: Aβ-stimulated pERK western blot in BV2 cells; type: cell-based, murine; conditions: 1h pretreatment, 1 μM Aβ
# Experimental: as §3
# TNF-α secretion [8] = assay: Aβ-stimulated TNF-α secretion ELISA in BV2 cells; type: cell-based, murine; conditions: 1h pretreatment, 50nM Aβ 1-42, 24h
# Experimental: as §1
# (§4) Media were collected from BV2 cells following 24 hour stimulations for ELISA analyses. Levels of mouse TNF-α, IL-6, and IL-1β in the media were determined using commercially available ELISA kits according to the manufacturer’s protocol (R&D Systems).
# IL-6 secretion = assay: Aβ-stimulated IL-6 secretion ELISA in BV2 cells; type: cell-based, murine; conditions: 1h pretreatment, 50nM Aβ 1-42, 24h
# Experimental: as §1, §4
# TNF-α secretion [9] = assay: LPS-stimulated TNF-α secretion ELISA in BV2 cells; type: cell-based, murine; conditions: 1h pretreatment, 25ng/ml LPS, 24h
# Experimental: as §1, §4
# [10] = Microsomal stability / intrinsic clearance assay, human; type: in vitro ADME; conditions: liver microsomes
# Experimental: (§5) Briefly, the compound was incubated with human or mouse microsomes in the presence or absence of NADPH. […] Data were converted to percent remaining by dividing by the time zero concentration value. In vitro half-life was determined based on the slope of the (first-order) decay curve and this value was converted to intrinsic clearance (CLint). […] Briefly, Caco-2 cells were plated in Millipore 96-well transwell plates and allowed to differentiate for 21 days to form polarized, epithelial monolayers. For apical to basolateral (A→B) permeability, the compound was added to the apical (A) side and amount permeation determined on the basolateral (B) side. For B→A permeability, the compound was added on the basolateral (B) side. Upon completion of the incubation (2 hr), the receiver side buffer was removed for analysis by LC-MS/MS. From the samples, apparent permeability rate coefficients (Papp values) and efflux ratios were determined for the compound.
# [11] = Microsomal stability / intrinsic clearance assay, mouse; type: in vitro ADME; conditions: liver microsomes
# Experimental: as §5
# [12] = Caco-2 bidirectional permeability assay; type: in vitro ADME; conditions: human
# Experimental: as §5
# Caco-2 cells = assay: Caco-2 bidirectional permeability assay; type: in vitro ADME; conditions: Caco-2, 10 μM, 2 hr
# Experimental: as §5
# [13] = read-out: NADPH-Dependent CLint
# T1 sequence (P25911 whole entry): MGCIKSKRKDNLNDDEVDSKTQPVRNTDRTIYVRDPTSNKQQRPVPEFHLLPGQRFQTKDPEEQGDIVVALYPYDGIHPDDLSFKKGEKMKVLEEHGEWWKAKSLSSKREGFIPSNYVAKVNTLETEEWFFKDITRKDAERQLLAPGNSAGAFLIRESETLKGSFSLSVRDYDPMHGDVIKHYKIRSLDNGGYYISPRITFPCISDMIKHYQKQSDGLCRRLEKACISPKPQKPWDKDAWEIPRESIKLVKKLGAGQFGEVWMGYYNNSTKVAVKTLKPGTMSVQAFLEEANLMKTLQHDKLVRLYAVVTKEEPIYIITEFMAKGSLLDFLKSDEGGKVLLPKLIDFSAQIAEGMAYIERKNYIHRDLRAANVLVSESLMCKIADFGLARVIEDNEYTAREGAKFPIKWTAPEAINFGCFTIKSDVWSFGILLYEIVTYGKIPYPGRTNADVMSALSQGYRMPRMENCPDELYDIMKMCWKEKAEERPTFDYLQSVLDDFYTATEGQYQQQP
# T2 sequence (P05480 whole entry): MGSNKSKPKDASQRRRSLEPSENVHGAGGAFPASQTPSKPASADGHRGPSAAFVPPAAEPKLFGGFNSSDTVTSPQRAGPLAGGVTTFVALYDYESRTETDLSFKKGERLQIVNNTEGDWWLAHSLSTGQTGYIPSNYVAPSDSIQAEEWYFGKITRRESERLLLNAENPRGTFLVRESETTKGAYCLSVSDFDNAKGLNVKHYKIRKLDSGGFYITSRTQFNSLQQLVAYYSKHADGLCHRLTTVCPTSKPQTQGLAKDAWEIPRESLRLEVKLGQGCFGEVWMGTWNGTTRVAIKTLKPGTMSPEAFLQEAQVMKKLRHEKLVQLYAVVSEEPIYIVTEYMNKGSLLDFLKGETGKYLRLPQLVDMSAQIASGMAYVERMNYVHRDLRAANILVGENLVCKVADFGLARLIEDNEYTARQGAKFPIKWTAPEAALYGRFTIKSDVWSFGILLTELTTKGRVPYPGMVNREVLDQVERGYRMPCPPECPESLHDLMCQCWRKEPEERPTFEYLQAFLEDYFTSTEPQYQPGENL
smiles,measurement,setting,value
COc1cc2ncnc(Nc3ccc(Cl)cc3Cl)c2cc1OC [LDDN-0003499],"toxicity to microglial BV2 cells (LDH release, cell viability)",microglial BV2 cells,not toxic
same,total protein phosphotyrosine levels,[1],significantly decrease the total protein phosphotyrosine levels in a dose-dependent manner
same,"active, phosphorylated Lyn (pLyn) protein levels",Lyn [2],dose-dependent decrease
same,"active, phosphorylated Src (pSrc) protein levels",Src [3],dose-dependent decrease
same,phosphorylated ERK (pERK) protein levels,ERK [4],no ability to alter
same,phosphorylated JNK (pJNK) protein levels,JNK,no ability to alter
same,phosphorylated p38 (p-p38) protein levels,p38,no ability to alter
same,selectivity for Lyn versus Src in the Aβ stimulation paradigm,Lyn [5]; 50nM (pLyn) vs 500nM (pSrc),tenfold
same,concentration sufficient to significantly attenuate the Aβ stimulated increase in pLyn levels,"Lyn [5]; 1h pretreatment, 1 μM Aβ 1-42 for 5 minutes",50 nM
same,concentration required to attenuate the Aβ stimulated increase in pSrc,Src [6],500 nM
same,pERK levels following Aβ stimulation,ERK [7],no inhibition
same,Aβ stimulated TNF-α secretion,TNF-α secretion [8],dose-dependently inhibited
same,concentration at which inhibition of Aβ stimulated TNF-α secretion begins,TNF-α secretion [8],500 nM
same,Aβ stimulated IL-6 secretion,IL-6 secretion,dose-dependently inhibited
same,LPS stimulated TNF-α secretion,TNF-α secretion [9],attenuated
same,half-life at 1 μM,[10]; read-out: NADPH-Depend. T1/2,14.1 min
same,microsomal CLint at 1 μM,[10]; [13],98.4 µL/min/mg
same,microsomal CLint at 1 μM,[10]; read-out: NADPH-Free CLint,21.2 µL/min/mg
same,half-life at 1 μM,[10]; read-out: NADPH-Free T1/2,65 min
same,half-life at 1 μM,[11]; read-out: NADPH-Depend. T1/2,16.6 min
same,microsomal CLint at 1 μM,[11]; [13],83.3 µL/min/mg
same,microsomal CLint at 1 μM,[11]; read-out: NADPH-Free CLint,15.8 µL/min/mg
same,half-life at 1 μM,[11]; read-out: NADPH-Free T1/2,88 min
same,"efflux ratio at 2 hr, 10 μM","[12]; Caco-2, 10 μM, 2 hr, read-out: Efflux Ratio Papp(B→A) / Papp(A→B)",0.85
same,"Papp A→B at 2 hr, 10 μM","[12]; Caco-2, 10 μM, 2 hr, read-out: mean A→B Papp",19 ×10⁻⁶ cm/s
same,"Papp B→A at 2 hr, 10 μM","[12]; Caco-2, 10 μM, 2 hr, read-out: mean B→A Papp",16.2 ×10⁻⁶ cm/s
same,"Caco-2 permeability, comment",Caco-2 cells,high permeability
O=C(Nc1cc(Cl)ccc1Cl)c1noc2c1CCC2 [LDDN-0075935],"toxicity to microglial BV2 cells (LDH release, cell viability)",microglial BV2 cells,not toxic
same,total protein phosphotyrosine levels,[1],no effect
same,"active, phosphorylated Lyn (pLyn) protein levels",Lyn [2],not able to attenuate
same,"active, phosphorylated Src (pSrc) protein levels",Src [3],not able to attenuate
same,phosphorylated ERK (pERK) protein levels,ERK [4],stimulated increased pERK protein levels at the highest drug concentration
same,phosphorylated JNK (pJNK) protein levels,JNK,did not attenuate
same,phosphorylated p38 (p-p38) protein levels,p38,did not attenuate
"CC(=O)CC(c1ccccc1)c1c(O)c2ccccc2oc1=O (stereo not drawn) [warfarin, reference compound]","Papp A→B at 2 hr, 10 μM",[12]; Caco-2,27.1 ×10⁻⁶ cm/s
same,"Papp B→A at 2 hr, 10 μM",[12]; Caco-2,10.4 ×10⁻⁶ cm/s
